From the NIST ThermoML archive (doi:10.1021/je049572f)
Where “and” joins values, the source holds several entries; their conditions need not be identical. Equal entries are not always repeated. Numbers after ± are expanded uncertainties.

Key:
[1] = 101.33 kPa, Liquid
[2] = xn = mol fraction of the nth substance listed; settings: 101.33 kPa, Liquid

| Compound | mass density ([1]; 303.15 K) | viscosity ([1]; 303.15 K) | mass density ([1]; 313.15 K) | viscosity ([1]; 313.15 K) | mass density ([1]; 323.15 K) | viscosity ([1]; 323.15 K) | mass density ([1]; 333.15 K) | viscosity ([1]; 333.15 K) | mass density ([1]; 343.15 K) | viscosity ([1]; 343.15 K) | mass density ([1]; 353.15 K) | viscosity ([1]; 353.15 K) | other results |
| --- | --- | --- | --- | --- | --- | --- | --- | --- | --- | --- | --- | --- | --- |
| CCCCCCCC [octane] | 695.79 ± 3.1 kg/m3 | 0.472 ± 0.014 mPa·s | 687.59 ± 3.2 kg/m3 | 0.422 ± 0.013 mPa·s | 679.34 ± 3.2 kg/m3 | 0.38 ± 0.012 mPa·s | 670.98 ± 3.3 kg/m3 | 0.343 ± 0.011 mPa·s | 662.59 ± 3.4 kg/m3 | 0.314 ± 0.011 mPa·s | 654.05 ± 3.5 kg/m3 | 0.287 ± 0.01 mPa·s | mass density ([1]; 293.15 K): 703.88 ± 3 kg/m3; viscosity ([1]; 293.15 K): 0.534 ± 0.015 mPa·s; mass density ([1]; 298.15 K): 699.83 ± 3.1 kg/m3; viscosity ([1]; 298.15 K): 0.501 ± 0.014 mPa·s; mass density ([1]; 363.15 K): 645.68 ± 3.5 kg/m3; viscosity ([1]; 363.15 K): 0.261 ± 0.01 mPa·s |
| CN1CCCC1=O [N-methylpyrrolidone] | 1023.47 ± 3.2 kg/m3 | 1.554 ± 0.053 mPa·s | 1014.55 ± 3.1 kg/m3 | 1.332 ± 0.046 mPa·s | 1005.66 ± 3 kg/m3 | 1.16 ± 0.04 mPa·s | 996.71 ± 2.9 kg/m3 | 1.022 ± 0.036 mPa·s | 987.75 ± 3 kg/m3 | 0.908 ± 0.032 mPa·s | 978.76 ± 3 kg/m3 | 0.813 ± 0.029 mPa·s |  |
| O=S1(=O)CCCC1 [sulfolane] | 1260.8 ± 6.4 kg/m3 | 10.07 ± 0.32 mPa·s | 1251.9 ± 6.3 kg/m3 | 7.808 ± 0.25 mPa·s | 1243.36 ± 6.2 kg/m3 | 6.194 ± 0.2 mPa·s | 1234.62 ± 6 kg/m3 | 5.009 ± 0.17 mPa·s | 1225.92 ± 5.9 kg/m3 | 4.126 ± 0.14 mPa·s | 1216.8 ± 5.8 kg/m3 | 3.44 ± 0.12 mPa·s |  |
| CCc1ccccc1 [ethylbenzene] | 859.95 ± 3.6 kg/m3 | 0.598 ± 0.016 mPa·s | 851.14 ± 3.7 kg/m3 | 0.537 ± 0.015 mPa·s | 842.3 ± 3.8 kg/m3 and 842.27 ± 3.8 kg/m3 | 0.483 ± 0.014 mPa·s | 833.34 ± 4 kg/m3 | 0.437 ± 0.013 mPa·s | 824.26 ± 4.1 kg/m3 | 0.397 ± 0.012 mPa·s | 815.18 ± 4.3 kg/m3 | 0.366 ± 0.012 mPa·s |  |
| CN1CCCC1=O [N-methylpyrrolidone] + CCc1ccccc1 |  |  |  |  |  |  |  |  |  |  |  |  | mass density ([2]; 303.15 K, x2 = 0): 1023.47 ± 3.2 kg/m3; viscosity ([2]; 303.15 K, x2 = 0): 1.554 ± 0.053 mPa·s; mass density ([2]; 313.15 K, x2 = 0): 1014.55 ± 3.1 kg/m3; viscosity ([2]; 313.15 K, x2 = 0): 1.332 ± 0.046 mPa·s; mass density ([2]; 323.15 K, x2 = 0): 1005.66 ± 3 kg/m3; viscosity ([2]; 323.15 K, x2 = 0): 1.16 ± 0.04 mPa·s; mass density ([2]; 333.15 K, x2 = 0): 996.71 ± 2.9 kg/m3; viscosity ([2]; 333.15 K, x2 = 0): 1.022 ± 0.036 mPa·s; mass density ([2]; 343.15 K, x2 = 0): 987.75 ± 3 kg/m3; viscosity ([2]; 343.15 K, x2 = 0): 0.908 ± 0.032 mPa·s; mass density ([2]; 353.15 K, x2 = 0): 978.76 ± 3 kg/m3; viscosity ([2]; 353.15 K, x2 = 0): 0.813 ± 0.029 mPa·s |
| C=Cc1ccccc1 [styrene] | 897.45 ± 1.5 kg/m3 | 0.654 ± 0.017 mPa·s | 888.53 ± 1.6 kg/m3 | 0.577 ± 0.016 mPa·s | 879.62 ± 1.6 kg/m3 | 0.513 ± 0.014 mPa·s | 870.64 ± 1.7 kg/m3 | 0.462 ± 0.013 mPa·s | 861.72 ± 1.8 kg/m3 | 0.419 ± 0.013 mPa·s | 852.68 ± 1.9 kg/m3 | 0.381 ± 0.012 mPa·s | mass density ([1]; 293.15 K): 906.29 ± 1.4 kg/m3; viscosity ([1]; 293.15 K): 0.749 ± 0.019 mPa·s; mass density ([1]; 298.15 K): 901.86 ± 1.4 kg/m3; viscosity ([1]; 298.15 K): 0.699 ± 0.018 mPa·s; mass density ([1]; 363.15 K): 843.99 ± 1.9 kg/m3; viscosity ([1]; 363.15 K): 0.349 ± 0.011 mPa·s |
| CCc1ccccc1 [ethylbenzene] + O=S1(=O)CCCC1 |  |  |  |  |  |  |  |  |  |  |  |  | mass density ([2]; 303.15 K, x1 = 1): 859.95 ± 3.6 kg/m3; viscosity ([2]; 303.15 K, x1 = 1): 0.598 ± 0.016 mPa·s; mass density ([2]; 313.15 K, x1 = 1): 851.14 ± 3.7 kg/m3; viscosity ([2]; 313.15 K, x1 = 1): 0.537 ± 0.015 mPa·s; mass density ([2]; 323.15 K, x1 = 1): 842.27 ± 3.8 kg/m3; viscosity ([2]; 323.15 K, x1 = 1): 0.483 ± 0.014 mPa·s; mass density ([2]; 333.15 K, x1 = 1): 833.34 ± 4 kg/m3; viscosity ([2]; 333.15 K, x1 = 1): 0.437 ± 0.013 mPa·s; mass density ([2]; 343.15 K, x1 = 1): 824.26 ± 4.1 kg/m3; viscosity ([2]; 343.15 K, x1 = 1): 0.397 ± 0.012 mPa·s; mass density ([2]; 353.15 K, x1 = 1): 815.18 ± 4.3 kg/m3; viscosity ([2]; 353.15 K, x1 = 1): 0.366 ± 0.012 mPa·s |
| CCCCCCCC [octane] + C=Cc1ccccc1 |  |  |  |  |  |  |  |  |  |  |  |  | mass density ([2]; 293.15 K, x2 = 0): 703.88 ± 3 kg/m3; viscosity ([2]; 293.15 K, x2 = 0): 0.534 ± 0.015 mPa·s; mass density ([2]; 298.15 K, x2 = 0): 699.83 ± 3.1 kg/m3; viscosity ([2]; 298.15 K, x2 = 0): 0.501 ± 0.014 mPa·s; mass density ([2]; 303.15 K, x2 = 0): 695.79 ± 3.1 kg/m3; viscosity ([2]; 303.15 K, x2 = 0): 0.472 ± 0.014 mPa·s; mass density ([2]; 313.15 K, x2 = 0): 687.59 ± 3.2 kg/m3; viscosity ([2]; 313.15 K, x2 = 0): 0.422 ± 0.013 mPa·s; mass density ([2]; 323.15 K, x2 = 0): 679.34 ± 3.2 kg/m3; viscosity ([2]; 323.15 K, x2 = 0): 0.38 ± 0.012 mPa·s; mass density ([2]; 333.15 K, x2 = 0): 670.98 ± 3.3 kg/m3; viscosity ([2]; 333.15 K, x2 = 0): 0.343 ± 0.011 mPa·s; mass density ([2]; 343.15 K, x2 = 0): 662.59 ± 3.4 kg/m3; viscosity ([2]; 343.15 K, x2 = 0): 0.314 ± 0.011 mPa·s; mass density ([2]; 353.15 K, x2 = 0): 654.05 ± 3.5 kg/m3; viscosity ([2]; 353.15 K, x2 = 0): 0.287 ± 0.01 mPa·s; mass density ([2]; 363.15 K, x2 = 0): 645.68 ± 3.5 kg/m3; viscosity ([2]; 363.15 K, x2 = 0): 0.261 ± 0.01 mPa·s |
